From article PMC4854315, “Discovery of a novel allosteric inhibitor-binding site in ERK5: comparison with the canonical kinase hinge ATP-binding site” (Acta Crystallographica. Section D, Structural Biology, 2016)

Experiments:
Experiment in all cases: Z'-LYTE kinase panel
Type in all cases: biochemical
PAK3 = target: T1, PAK3 (Homo sapiens, UniProt O75914)
T1 construct: purchased ThermoFisher (SelectScreen, Z'-LYTE)
Method in brief: (§1)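 Percent inhibition measured at 10 µM compound using the standard Z′-LYTE protocol, as part of a 225-kinase standard panel screen.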

BRSK1 (SAD1) = target: T2, BRSK1 (SAD1) (Homo sapiens, UniProt Q8TDC3)
T2 construct: purchased ThermoFisher (SelectScreen, Z'-LYTE)
T2 sequence (Q8TDC3 1-778): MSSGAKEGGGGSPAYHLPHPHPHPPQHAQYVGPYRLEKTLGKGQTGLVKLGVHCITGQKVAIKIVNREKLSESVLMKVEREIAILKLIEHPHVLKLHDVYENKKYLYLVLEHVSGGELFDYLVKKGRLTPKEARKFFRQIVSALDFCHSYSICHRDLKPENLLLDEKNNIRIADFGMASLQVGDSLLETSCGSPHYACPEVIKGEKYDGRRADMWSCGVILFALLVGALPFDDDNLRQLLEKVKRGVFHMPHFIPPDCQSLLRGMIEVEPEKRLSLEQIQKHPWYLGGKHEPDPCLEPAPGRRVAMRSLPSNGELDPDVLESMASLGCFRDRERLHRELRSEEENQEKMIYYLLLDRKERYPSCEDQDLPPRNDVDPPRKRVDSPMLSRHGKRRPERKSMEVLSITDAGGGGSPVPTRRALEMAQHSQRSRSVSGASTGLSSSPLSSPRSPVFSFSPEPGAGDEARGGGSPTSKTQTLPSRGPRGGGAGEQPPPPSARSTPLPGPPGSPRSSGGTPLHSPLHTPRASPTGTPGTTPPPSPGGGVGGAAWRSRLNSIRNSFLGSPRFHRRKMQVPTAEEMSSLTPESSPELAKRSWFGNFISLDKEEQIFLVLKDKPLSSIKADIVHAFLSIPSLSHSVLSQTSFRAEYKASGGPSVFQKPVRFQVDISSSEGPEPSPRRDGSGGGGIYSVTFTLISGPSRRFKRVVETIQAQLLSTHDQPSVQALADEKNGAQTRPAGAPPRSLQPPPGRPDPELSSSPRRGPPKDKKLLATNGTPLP
Method in brief: as §1

MARK4 = target: T3, MARK4 (Homo sapiens, UniProt Q96L34)
T3 construct: purchased ThermoFisher (SelectScreen, Z'-LYTE)
T3 sequence (Q96L34 1-752): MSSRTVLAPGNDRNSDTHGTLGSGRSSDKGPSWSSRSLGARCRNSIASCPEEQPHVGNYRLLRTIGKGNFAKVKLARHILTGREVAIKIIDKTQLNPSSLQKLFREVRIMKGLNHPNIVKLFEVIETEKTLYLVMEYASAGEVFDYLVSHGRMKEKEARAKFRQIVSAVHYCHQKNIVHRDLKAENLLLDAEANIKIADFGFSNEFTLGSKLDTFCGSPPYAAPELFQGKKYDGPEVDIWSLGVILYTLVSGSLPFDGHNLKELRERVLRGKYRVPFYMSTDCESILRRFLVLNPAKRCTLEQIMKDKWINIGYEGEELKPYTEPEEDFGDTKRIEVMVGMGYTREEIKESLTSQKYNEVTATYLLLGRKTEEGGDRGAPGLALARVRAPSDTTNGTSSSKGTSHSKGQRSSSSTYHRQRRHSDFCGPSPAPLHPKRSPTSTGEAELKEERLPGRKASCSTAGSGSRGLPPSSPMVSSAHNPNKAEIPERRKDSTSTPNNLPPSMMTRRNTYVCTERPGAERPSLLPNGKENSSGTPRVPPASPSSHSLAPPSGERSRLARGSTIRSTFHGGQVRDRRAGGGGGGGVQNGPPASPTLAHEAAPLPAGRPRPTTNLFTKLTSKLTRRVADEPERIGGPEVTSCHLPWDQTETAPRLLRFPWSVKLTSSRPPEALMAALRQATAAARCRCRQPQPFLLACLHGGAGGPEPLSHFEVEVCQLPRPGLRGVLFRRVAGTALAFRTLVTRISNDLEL
Method in brief: as §1

EPHB2 = target: T4, EPHB2 (Homo sapiens, UniProt P29323)
T4 construct: purchased ThermoFisher (SelectScreen, Z'-LYTE)
T4 sequence (P29323 19-1055): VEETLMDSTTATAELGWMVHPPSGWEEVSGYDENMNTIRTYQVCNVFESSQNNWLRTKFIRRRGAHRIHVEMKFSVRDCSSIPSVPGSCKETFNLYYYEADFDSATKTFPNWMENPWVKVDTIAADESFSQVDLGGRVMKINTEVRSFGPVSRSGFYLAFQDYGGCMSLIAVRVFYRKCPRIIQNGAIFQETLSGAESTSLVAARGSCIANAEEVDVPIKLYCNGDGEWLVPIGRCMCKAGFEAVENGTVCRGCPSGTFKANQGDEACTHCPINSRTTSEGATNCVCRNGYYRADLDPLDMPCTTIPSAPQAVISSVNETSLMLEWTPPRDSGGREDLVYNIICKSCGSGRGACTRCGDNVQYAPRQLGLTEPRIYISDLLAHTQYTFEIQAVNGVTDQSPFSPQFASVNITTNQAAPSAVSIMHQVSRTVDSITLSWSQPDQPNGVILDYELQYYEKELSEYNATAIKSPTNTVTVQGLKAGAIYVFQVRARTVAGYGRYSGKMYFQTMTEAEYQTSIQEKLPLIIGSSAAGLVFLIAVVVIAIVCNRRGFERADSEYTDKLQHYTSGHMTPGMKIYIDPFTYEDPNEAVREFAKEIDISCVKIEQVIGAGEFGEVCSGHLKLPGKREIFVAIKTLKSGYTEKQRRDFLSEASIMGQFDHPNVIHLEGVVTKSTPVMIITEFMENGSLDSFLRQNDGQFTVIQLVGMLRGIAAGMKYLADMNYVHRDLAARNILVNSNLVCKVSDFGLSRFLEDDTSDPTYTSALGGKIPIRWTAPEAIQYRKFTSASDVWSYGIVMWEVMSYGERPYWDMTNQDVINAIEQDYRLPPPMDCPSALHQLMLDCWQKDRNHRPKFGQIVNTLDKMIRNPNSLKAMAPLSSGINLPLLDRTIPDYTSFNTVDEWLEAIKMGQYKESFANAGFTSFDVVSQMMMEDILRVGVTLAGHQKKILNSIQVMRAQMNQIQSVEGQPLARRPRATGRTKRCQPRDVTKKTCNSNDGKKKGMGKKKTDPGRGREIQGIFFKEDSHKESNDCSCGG
Method in brief: as §1

T1 sequence (O75914 whole entry): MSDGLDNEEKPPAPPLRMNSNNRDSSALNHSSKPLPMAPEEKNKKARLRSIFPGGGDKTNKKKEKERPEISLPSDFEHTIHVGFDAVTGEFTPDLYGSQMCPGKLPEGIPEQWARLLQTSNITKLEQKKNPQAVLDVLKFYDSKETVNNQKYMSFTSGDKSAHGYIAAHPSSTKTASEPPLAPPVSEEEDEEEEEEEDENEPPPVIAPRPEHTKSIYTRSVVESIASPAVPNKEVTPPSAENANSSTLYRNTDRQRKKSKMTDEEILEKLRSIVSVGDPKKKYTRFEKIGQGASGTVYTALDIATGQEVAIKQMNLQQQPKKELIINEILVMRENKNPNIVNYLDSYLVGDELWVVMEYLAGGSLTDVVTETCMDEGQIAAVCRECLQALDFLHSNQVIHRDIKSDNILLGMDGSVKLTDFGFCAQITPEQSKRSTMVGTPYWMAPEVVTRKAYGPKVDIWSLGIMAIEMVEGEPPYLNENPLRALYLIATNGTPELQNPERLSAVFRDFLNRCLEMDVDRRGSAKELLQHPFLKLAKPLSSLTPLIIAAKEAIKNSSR

Row | Molecule | PAK3 % Inhibition (PAK3; 10 µM compound, ATP Km app) [%] | BRSK1 (SAD1) % Inhibition (BRSK1 (SAD1); 10 µM compound, ATP Km app) [%] | MARK4 % Inhibition (MARK4; 10 µM compound, ATP Km app) [%] | EPHB2 % Inhibition (EPHB2; 10 µM compound, ATP Km app) [%] | inhibition at 10 µM (PAK3) [%] | inhibition at 10 µM (BRSK1 (SAD1)) [%] | inhibition at 10 µM (MARK4) [%] | inhibition at 10 µM (EPHB2) [%]
1 | XMD8-92 [Compound 2, reference compound] | 71 | 80 | 37 | 18 | – | – | – | –
2 | Cc1ncc(-c2nc(Nc3ccc(C(=O)NCCN4CCCCC4)cc3)ncc2F)n1C(C)C [Compound 3] | – | – | – | – | 37 | 91 | 62 | 97
3 | Cc1cc(Nc2nc(N)nn2C(=O)NC(C)C)ccc1Cl [Compound 5] | – | – | – | – | -12 | 35 | 2.34 | 7
